Columns and labels:
[1] = test system: T1, syntenin‐Frizzled7 complex (GST-SyntFL / FZD7 peptide); test: HTRF assay, syntenin-Frizzled 7 interaction; assay type: biochemical, human; details: for GST SyntFL Frizzled 7 (signal ratio): 400µM compound, Figure 1c; for HTRF ASSAY GST-SyntFL FZD7 (HTRF signal ratio): primary screen, 400 µM compound, signal below 0.9 considered effective inhibition, Table S1
T1 construct: residues 1–298 or syntenin full‐length (FL) for HTRF assays; made in house; host or cells: E. coli ER2566
Protocol: (§1) HTRF assays were performed in white 96Well Small VolumeHiBase Polystyrene Microplates (Greiner) with a total working volume of […], as described previously (Milhas et al., 2016). Briefly, compounds were firstly dispensed into the wells at 400 µM for the primary screen or with serial DMSO dilutions for IC50 measurement assays. Primary screening assays have been performed in monoplicate while IC50 measurements were performed in triplicates. All HTRF reagents were purchased from CisBio Bioassays and reconstituted according to the supplier protocols. The plates were spun for 3 min at 500 × g and then incubated at 4°C for 16 h. The HTRF signals were recorded on a POLAR star Omega plate reader (BMG Labtech) with an excitation filter at 337 nm and fluorescence wavelength measurement at 620 and 665 nm, an integration delay of 60 µs and an integration time of 400 µs. Results were analysed with a two‐wavelength signal ratio: [intensity (665 nm)/intensity (620 nm)] × 10^4. Percentage of inhibition was calculated using the following equation: % inhibition = [(compound signal)–(min signal)]/[(max signal)–(min signal)] × 100, where ‘max signal’ is the signal ratio with the compound vehicle alone (DMSO) and ‘min signal’ the signal ratio without protein B. For IC50 measurements, values were normalized and fitted with Prism (GraphPad software) using the following equation: Y = 100/(1+((X/ IC50)ˆHill slope)).
(§2) The search strategy for PDZ2 syntenin inhibitors was based on the PDZ targeted library developed from Enamine compound collection. The PDZ targeted library was developed to cover virtually all PDZ domains. Consequently, to create the syntenin PDZ2 focused library we used two independent paths: docking of the PDZ targeted library against structures of syntenin PDZ2 available in Protein Data Bank and a random selection from the PDZ targeted library. The docking has produced 21 virtual hits, which were added to 118 randomly selected compounds (10% of the pan PDZ library). The resultant set of 139 compounds, syntenin PDZ library was subjected to experimental validation. The primary screen was performed at 400µM using a previously validated Homogeneous Time Resolved Fluorescence (HTRF) assay (Milhas et al., 2016). HTRF is based on Fluorescence Resonance Energy Transfer (FRET) between two fluorescent reagents. In the present case, Anti‐GST‐Terbium antibody and streptavidin‐bound Dynamic2 were used as donor and acceptor respectively. Interactions between GST PDZ‐fusion proteins and biotinylated peptides containing PDZ binding motifs were challenged with the potential inhibitors. In parallel, control experiments were performed with a biotinylated‐GST to verify that compounds were not interfering with the FRET signal in a non‐specific manner. To identify inhibitors of syntenin PDZ interactions, we tested for the effect of the 139 compounds on syntenin‐SDC2 and syntenin‐Frizzled7 complexes (Figure 1a; Table S1). When the HTRF signal dropped below 0.9, inhibition was considered as effective. […] Noteworthy, these compounds had no effect on other PDZ complexes like GRASP55‐JAM‐B or GRASP55‐JAM‐C and Erbin‐Erbb2 or Erbin‐P0071 (Figure 1c).

biotinylated‐GST = test: HTRF control with biotinylated-GST (non-specific interference with FRET signal); details: for GST-biot (signal ratio): 400µM compound, Figure 1c; for effect on control (biotinylated‐GST) FRET signals: HTRF primary screen, 400µM; for HTRF ASSAY GST-biot (HTRF signal ratio, control): primary screen, 400 µM compound, Table S1
Protocol: as §1, §2

GRASP55‐JAM‐B complex = test system: T2, GRASP55‐JAM‐B complex; test: HTRF assay, GRASP55-JAM-B interaction; assay type: biochemical, human; details: 400µM compound; Figure 1c
T2 construct: Human GRASP55 tandem PDZ; made in house; host or cells: E. coli BL21 (DE3)
Protocol: as §1, §2

GRASP55‐JAM‐C complex = test system: T3, GRASP55‐JAM‐C complex; test: HTRF assay, GRASP55-JAM-C interaction; assay type: biochemical, human; details: 400µM compound; Figure 1c
T3 construct: Human GRASP55 tandem PDZ; made in house; host or cells: E. coli BL21 (DE3)
Protocol: as §1, §2

Erbin‐Erbb2 complex = test system: T4, Erbin‐Erbb2 complex; test: HTRF assay, Erbin-ERBB2 interaction; assay type: biochemical, human; details: 400µM compound; Figure 1c
T4 construct: human Erbin PDZ domain; made in house; host or cells: E. coli BL21 (DE3)
Protocol: as §1, §2

Erbin‐P0071 complex = test system: T5, Erbin‐P0071 complex; test: HTRF assay, Erbin-P0071 interaction; assay type: biochemical, human; details: 400µM compound; Figure 1c
T5 construct: human Erbin PDZ domain; made in house; host or cells: E. coli BL21 (DE3)
Protocol: as §1, §2

[2] = molecular target: T6, syntenin‐SDC2 complex (GST-SyntFL / SDC2 peptide) (Homo sapiens, UniProt O00560); test: HTRF assay, syntenin-SDC2 interaction; assay type: biochemical; details: for GST SyntFL Syndecan 2 (signal ratio): 400µM compound, Figure 1c; for inhibition of syntenin PDZ interactions: HTRF primary screen, 400µM, syntenin-SDC2 and syntenin-Frizzled7; for HTRF ASSAY GST-SyntFL SDC2 (HTRF signal ratio): primary screen, 400 µM compound, signal below 0.9 considered effective inhibition, Table S1
T6 construct: residues 1–298 or syntenin full‐length (FL) for HTRF assays; made in house; host or cells: E. coli ER2566
T6 sequence (O00560 1-298): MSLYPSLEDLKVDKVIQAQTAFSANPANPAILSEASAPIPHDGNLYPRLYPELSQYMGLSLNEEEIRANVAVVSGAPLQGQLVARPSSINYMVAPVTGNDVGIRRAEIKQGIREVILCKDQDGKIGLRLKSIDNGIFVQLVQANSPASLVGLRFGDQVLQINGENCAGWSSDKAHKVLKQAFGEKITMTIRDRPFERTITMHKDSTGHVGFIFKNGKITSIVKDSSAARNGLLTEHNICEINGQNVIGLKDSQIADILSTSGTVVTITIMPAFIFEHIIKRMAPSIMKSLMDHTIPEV

| SMILES | GST SyntFL Frizzled 7 (signal ratio) [1] | HTRF ASSAY GST-SyntFL FZD7 (HTRF signal ratio) [1] | GST-biot (signal ratio) (biotinylated‐GST) | effect on control (biotinylated‐GST) FRET signals (biotinylated‐GST) | HTRF ASSAY GST-biot (HTRF signal ratio, control) (biotinylated‐GST) | GST-GRASP JAM-B (signal ratio) (GRASP55‐JAM‐B complex) | GST-GRASP JAM-C (signal ratio) (GRASP55‐JAM‐C complex) | GST-Erbin ERBB2 (signal ratio) (Erbin‐Erbb2 complex) | GST-Erbin P0071 (signal ratio) (Erbin‐P0071 complex) | GST SyntFL Syndecan 2 (signal ratio) [2] | inhibition of syntenin PDZ interactions [2] | HTRF ASSAY GST-SyntFL SDC2 (HTRF signal ratio) [2] | inhibition at 400 µM ([2]; HTRF, 400 µM, syntenin-SDC2 and syntenin-Frizzled 7 complexes, read-out: extent of inhibition of Syntenin‐PDZ complexes) [%] |
| --- | --- | --- | --- | --- | --- | --- | --- | --- | --- | --- | --- | --- | --- |
| CC(C)[C@H](NC(=O)COc1ccc2ccccc2c1)C(=O)O [Compound C4] | 0.78 | 0.77 | 0.97 | no significant effect | 1.02 | 0.97 | 0.89 | 1.02 | 0.89 | 0.78 | inhibit | 0.78 | – |
| CC(C)[C@H](NS(=O)(=O)c1ccc2c(c1)OCCCO2)C(=O)O [Compound C37] | 0.7 | 0.68 | 0.97 | no significant effect | 1.04 | 1 | 1 | 1.04 | 0.95 | 0.74 | inhibit | 0.73 | – |
| CC(C)[C@H](NS(=O)(=O)c1ccc2ccccc2c1)C(=O)O [Compound C38] | 0.55 | 0.56 | 0.96 | no significant effect | 0.92 | 1 | 1 | 0.92 | 1 | 0.58 | inhibit | 0.59 | 40 |
| Cc1ccc(S(=O)(=O)N[C@H](C(=O)O)C(C)C)cc1C [Compound C47] | 0.78 | 0.71 | 0.99 | no significant effect | 0.96 | 1.1 | 1 | 0.96 | 1 | 0.78 | inhibit | 0.74 | – |

Reference: publication PMC7737769, “Pharmacological inhibition of syntenin PDZ2 domain impairs breast cancer cell activities and exosome loading with syndecan and EpCAM cargo” (Journal of Extracellular Vesicles, 2020)
